Experimental data as given in US20230060425A1, “FUSED BICYCLIC HETEROCYCLE DERIVATIVES AS PESTICIDES” (Bayer Aktiengesellschaft, priority 2019, published 2023).

Key:
Type in all cases: in vivo
Diabrotica balteata = Diabrotica balteata spray test; details: 168 h, application rate 160 μg/cavity (μg/well), wheat grains, after 7 days, read-out: efficacy
Protocol: Diabrotica balteata—Spray Test
(§1) Solvent: • 78 parts by weight of acetone • 1.5 parts by weight of dimethylformamide
(§2) Emulsifier: alkylaryl polyglycol ether
(§3) To produce a suitable active compound preparation, 1 part by weight of active compound is dissolved using the stated parts by weight of solvent and made up with water containing an emulsifier concentration of 1000 ppm until the desired concentration is attained. To produce further test concentrations, the formulation is diluted with emulsifier-containing water.
Pre-swollen wheat grains (Triticum aestivum) are incubated in a multiwell plate filled with agar and a little water for one day (5 seed grains per well). The germinated wheat grains are sprayed with an active compound preparation of the desired concentration. Subsequently, each cavity is infected with 10-20 beetle larvae of Diabrotica balteata.
After 7 days, the efficacy in % is determined. 100% means that all wheat plants have grown as in the untreated, uninfected control; 0% means that no wheat plant has grown.

Myzus persicae [1] = assay: Myzus persicae oral test; details: 120 h, application rate 4 ppm, after 5 days, read-out: efficacy
Protocol: Solvent: 100 parts by weight of acetone
To produce a suitable preparation of active compound, 1 part by weight of active compound is dissolved using the specified parts by weight of solvent and made up with water until the desired concentration is attained.
50 μl of the active compound preparation are transferred into microtitre plates and made up to a final volume of 200 μl with 150 μl of IPL41 insect medium (33%+15% sugar). Subsequently, the plates are sealed with parafilm, which a mixed population of green peach aphids (Myzus persicae) within a second microtitre plate is able to puncture and imbibe the solution through it.
(§4) After 5 days, the efficacy in % is determined. 100% means that all the aphids have been killed; 0% means that no aphids have been killed.

Myzus persicae [2] = assay: Myzus persicae spray test; details: foliar, 120 h, application rate 100 g/ha, Chinese cabbage leaf discs, after 5 days, read-out: efficacy
Protocol: Myzus persicae—Spray Test
as §1, §2, §3
Discs of Chinese cabbage leaves (Brassica pekinensis) infested by all stages of the green peach aphid (Myzus persicae) are sprayed with an active compound formulation of the desired concentration.
as §4

Spodoptera frugiperda = Spodoptera frugiperda spray test; details: foliar, 168 h, application rate 100 g/ha, maize leaf discs, after 7 days, read-out: efficacy
Protocol: Spodoptera frugiperda—Spray Test
(§5) Solvent: • 78.0 parts by weight of acetone • 1.5 parts by weight of dimethylformamide
as §2
To produce further test concentrations, the formulation is diluted with emulsifier-containing water.
After 7 days, the efficacy in % is determined. 100% means that all the caterpillars have been killed; 0% means that no caterpillar has been killed.

Phaedon cochleariae = Phaedon cochleariae spray test; details: foliar, 168 h, application rate 100 g/ha, Chinese cabbage leaf discs, after 7 days, read-out: efficacy
Protocol: Phaedon cochleariae—Spray Test
as §5, §2, §3
Discs of Chinese cabbage leaves (Brassica pekinensis) are sprayed with an active compound formulation of the desired concentration and, after drying, populated with larvae of the mustard beetle (Phaedon cochleariae).
After 7 days, the efficacy in % is determined. 100% means that all the beetle larvae have been killed; 0% means that no beetle larvae have been killed.

Ctenocephalides felis = Ctenocephalides felis oral test; details: 48 h, application rate 100 ppm, in citrated cattle blood, after 2 days, read-out: efficacy (kill in %)
Protocol: Ctenocephalides felis—Oral Test
Solvent: Dimethyl sulfoxide
To produce a suitable active compound formulation, 10 mg of active compound are mixed with 0.5 ml of dimethyl sulfoxide. Dilution with citrated cattle blood gives the desired concentration.
About 20 unfed adult cat fleas (Ctenocephalides felis) are placed into a chamber which is closed at the top and bottom with gauze. A metal cylinder whose bottom end is closed with parafilm is placed onto the chamber. The cylinder contains the blood/active compound formulation, which can be imbibed by the fleas through the parafilm membrane.
After 2 days, the kill in % is determined. 100% means that all of the fleas have been killed; 0% means that none of the fleas have been killed.

Row | SMILES | pest or weed control at 160 µg/well (Diabrotica balteata) [%] | pest or weed control at 4 ppm (Myzus persicae [1]) [%] | pest or weed control at 100 g/ha (Myzus persicae [2]) [%] | pest or weed control at 100 g/ha (Spodoptera frugiperda) [%] | pest or weed control at 100 g/ha (Phaedon cochleariae) [%] | pest or weed control at 100 ppm (Ctenocephalides felis) [%]
1 | CCS(=O)(=O)c1c(-c2nc3cc(C(F)(F)F)nnc3n2C)ncc2ccc(C)cc12 [Example I-044] | 100 | 100 | 90 | – | – | –
2 | CCS(=O)(=O)c1c(-c2nc3cc(C(F)(F)C(F)(F)F)cnc3n2C)ncc2c(C#N)cccc12 [Example I-030] | 100 | 100 | – | 100 | – | –
3 | CCS(=O)(=O)c1c(-c2nc3cc(C(F)(F)F)cnc3n2C)ncc2cc(C3CC3)ccc12 [Example I-007] | – | 100 | – | 67 | 100 | –
4 | CCS(=O)(=O)c1c(-c2nc3cc(C(F)(F)F)ncc3n2C)ncc2c(C(F)(F)F)cccc12 [Example I-013] | – | 100 | 100 | 100 | 100 | 100
5 | CCS(=O)(=O)c1c(-c2nc3cc(C(F)(F)C(F)(F)F)cnc3n2C)ncc2cc(OCC(C)(F)F)ccc12 [Example I-053] | 100 | – | – | 100 | – | –
6 | CCS(=O)(=O)c1c(-c2nc3cc(C(F)(F)F)nnc3n2C)ncc2cc(C)ccc12 [Example I-003] | – | 100 | 90 | – | – | 80
7 | CCS(=O)(=O)c1c(-c2nc3cc(C(F)(F)F)nnc3n2C)ncc2ccc(Cl)cc12 [Example I-039] | 100 | 100 | – | 100 | – | –
8 | CCS(=O)(=O)c1c(-c2nc3cc(C(F)(F)F)nnc3n2C)ncc2cc(Br)ccc12 [Example I-028] | 80 | 100 | 90 | 100 | – | –
9 | CCS(=O)(=O)c1c(-c2nc3cc(C(F)(F)C(F)(F)F)cnc3n2C)ncc2c(C(F)(F)F)cccc12 [Example I-014] | – | 90 | 100 | 100 | 100 | –
10 | CCS(=O)(=O)c1c(-c2nc3cc(C(F)(F)F)ncc3n2C)ncc2c(Br)cccc12 [Example I-018] | 100 | 100 | 100 | – | – | –
11 | CCS(=O)(=O)c1c(-c2nc3cc(C(F)(F)C(F)(F)F)cnc3n2C)ncc2cc(C3CC3)ccc12 [Example I-050] | 100 | 90 | – | 100 | – | –
12 | CCS(=O)(=O)c1c(-c2nc3cc(C(F)(F)C(F)(F)F)cnc3n2C)ncc2cc(OCC(F)F)ccc12 [Example I-049] | 80 | – | – | 100 | – | –
13 | CCS(=O)(=O)c1c(-c2nc3cc(C(F)(F)C(F)(F)F)nnc3n2C)ncc2c(Br)cccc12 [Example I-046] | 100 | 100 | – | 100 | – | –
14 | CCS(=O)(=O)c1c(-c2nc3cc(S(=O)(=O)C(F)(F)F)cnc3n2C)ncc2c(Br)cccc12 [Example I-029] | 100 | 100 | 90 | 100 | – | –
15 | CCS(=O)(=O)c1c(-c2nc3cc(C(F)(F)F)cnc3n2C)ncc2cc(NC(=O)C3CC3)ccc12 [Example I-038] | – | 100 | – | 100 | 100 | –
